Patent publication US20120035214A1, “RENIN INHIBITORS” (Merck Canada Inc., priority 2009, published 2012)

Tests used:
Human recombinant renin = target: T1, Human recombinant renin (Homo sapiens, UniProt P00797); assay: Inhibition of human recombinant renin (QFRET, buffer); format: biochemical; conditions: buffer: 50 mM MOPS pH 7.4, 100 mM NaCl, 0.002% Tween 20; 37° C., 3 hours
T1 construct: purchased Proteos
T1 sequence (P00797 67-406): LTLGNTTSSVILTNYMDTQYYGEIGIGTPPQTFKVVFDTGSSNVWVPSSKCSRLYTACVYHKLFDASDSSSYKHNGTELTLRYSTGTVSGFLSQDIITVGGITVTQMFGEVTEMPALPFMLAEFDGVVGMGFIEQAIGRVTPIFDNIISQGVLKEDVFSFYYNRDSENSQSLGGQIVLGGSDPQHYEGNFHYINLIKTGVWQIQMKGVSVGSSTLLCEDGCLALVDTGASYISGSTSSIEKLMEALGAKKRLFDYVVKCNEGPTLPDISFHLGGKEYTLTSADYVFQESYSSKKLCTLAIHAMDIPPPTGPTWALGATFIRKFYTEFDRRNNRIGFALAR
Protocol: Inhibition of Human Recombinant Renin
Human recombinant renin (Proteos) in 50 mM MOPS pH 7.4, 100 mM NaCl, 0.002% Tween 20 at a final concentration of […] is incubated with inhibitors from a 50 fold concentrated DMSO solution and 6 μM of an internally-quenched fluorescent peptide: DNP-[…]D,L-Amp (SEQ ID NO: 1); Paschalidou K. et al., Biochem J., 2004, 382, 1031). The reactions take place in a Costar 384 well black plate (#3573) at 37° C. for 3 hours. Fluorescence is measured at times 0 and 3 hours with a SpectraMax Gemini EM reader set at an excitation wavelength of 328 nm and at an emission wavelength of 388 nm. Background fluorescence at t=0 is subtracted from the measurement at t=3 hours. Inhibitory activity of the compounds is expressed as IC50.

[1] = target: T2, recombinant renin in human plasma (Homo sapiens, UniProt P00797); assay: Inhibition of renin in human plasma (QFRET, plasma); format: biochemical; conditions: human EDTA plasma with 1 nM recombinant renin added; 37° C., 1 hour
T2 construct: purchased Proteos
T2 sequence (P00797 67-406): T1 sequence (P00797 67-406)
Protocol: Inhibition of Renin in Human Plasma
Human EDTA-collected plasma is rapidly thawed in warm water and centrifuged at 2900 g for 15 minutes at 4° C. The supernatant is collected and recombinant renin (Proteos) is added at a final concentration of 1 nM. The plasma is transferred to a Costar black 384 well plate (#3573). Renin inhibitors are added from a 17.5 fold concentrated DMSO solution and pre-incubated at 37° C. for 10 minutes. The internally-quench fluorescent peptide QXL520™-[…](5-FAM) (Anaspec), SEQ ID NO: 2, is diluted in 3M Tris pH 7.2, 200 mM EDTA and added to the plasma. The final concentrations are: 6 μM substrate, 342 mM Tris, 23 mM EDTA. The plate is incubated at 37° C. for 1 hour. The plate is read in a SpectraMax Gemini EM reader set at an excitation wavelength of 490 nm and an emission wavelength of 520 nm at times 0 and 1 hour. Background fluorescence at t=0 is subtracted from the measurement at t=1 hour. Inhibitory activity of the compounds is expressed as IC50.

SMILES	IC50 (Human recombinant renin) [µM]	IC50 [1] [µM]
COCCCc1ccccc1-c1ccc([C@H]2CNCC[C@@H]2c2cccnc2)c(C)c1 (racemic) [Structure 2]	0.018	0.31
CC(=O)NCCc1ccccc1-c1ccc([C@H]2CNCC[C@@H]2c2cccnc2)c(C)c1 (racemic) [Structure 3]	0.0092	0.041
Cc1cc(-c2ccccc2CCCO)ccc1[C@H]1CNCC[C@@H]1c1cc(F)cc(F)c1 (racemic) [Structure 7, (+/−)-trans-3-{4′-[4-(3,5-difluorophenyl)piperidin-3-yl]-3′-methylbiphenyl-2-yl}propan-1-ol]	0.085	3.15
COCCCc1ccccc1-c1ccc([C@H]2CNCC[C@@H]2c2cc(F)cc(F)c2)c(C)c1 (racemic) [Structure 8]	0.0043	1.18
COCCCc1ccccc1-c1ccc([C@H]2CNCC[C@@H]2c2cccc3nc[nH]c23)c(Cl)c1 (racemic) [Structure 10]	0.0035	2.06
COCCCc1cccc(C)c1-c1ccc([C@H]2CNCC[C@@H]2c2cccnc2)c(C)c1 (racemic) [Structure 12]	0.01	0.15
CC(=O)NCCc1ccccc1-c1ccc([C@H]2CNCC[C@@H]2c2cc(F)cc(F)c2)c(C)c1 (racemic) [Structure 15]	0.0016	0.018
CCC(=O)NCCc1ccccc1-c1ccc([C@H]2CNCC[C@@H]2c2cc(F)cc(F)c2)c(C)c1 (racemic) [Structure 18]	0.00065	0.0013
Cc1cc(-c2ccccc2CCNS(C)(=O)=O)ccc1[C@H]1CNCC[C@@H]1c1cc(F)cc(F)c1 (racemic) [Structure 19]	0.071	1.81
Cc1cc(-c2ccccc2CCNC(=O)C(F)(F)F)ccc1[C@H]1CNCC[C@@H]1c1cc(F)cc(F)c1 (racemic) [Structure 20]	0.00057	0.025
Cc1cc(-c2ccccc2CCNC(=O)OCc2ccccc2)ccc1[C@H]1CNCC[C@@H]1c1cc(F)cc(F)c1 (racemic) [Structure 25]	0.018	5.47
Cc1cc(-c2ccccc2CCN)ccc1[C@H]1CNCC[C@@H]1c1cc(F)cc(F)c1 (racemic) [Structure 27]	0.081	1.04
COCc1ccc2cccc(-c3ccc([C@H]4CNCC[C@@H]4c4cc(F)cc(F)c4)c(C)c3)c2c1 (racemic) [Structure 30]	0.1	11.3
Cc1cc(-c2ccccc2CCNC(=O)C(F)(F)C(F)(F)F)ccc1[C@H]1CNCC[C@@H]1c1cc(F)cc(F)c1 (racemic) [Structure 32]	0.023	0.075
Cc1ccccc1OCc1ccccc1-c1ccc([C@H]2CNCC[C@@H]2c2cc(F)cc(F)c2)c(C)c1 (racemic) [Structure 34]	0.0075	4.98
Cc1cc(-c2ccccc2COc2cccnc2)ccc1[C@H]1CNCC[C@@H]1c1cc(F)cc(F)c1 (racemic) [Structure 36]	0.00055	0.094
Cc1cc(-c2ccccc2OCc2ccccc2)ccc1[C@H]1CNCC[C@@H]1c1cc(F)cc(F)c1 (racemic) [Structure 37]	0.087	12.4
Cc1cc(-c2ccccc2OCc2cccnc2)ccc1[C@H]1CNCC[C@@H]1c1cc(F)cc(F)c1 (racemic) [Structure 38]	0.15	> 28
COCCCc1ccccc1-c1ccc([C@H]2CNCC[C@]2(O)c2cc(F)cc(F)c2)c(C)c1 (racemic) [Structure 39]	0.0042	0.75
COC(=O)NCCc1ccccc1-c1ccc([C@H]2CNCC[C@@H]2c2ccc(F)c(F)c2)c(Cl)c1 (racemic) [Structure 42]	0.00014	0.0098
O=C(CO)NCCc1ccccc1-c1ccc([C@H]2CNCC[C@@H]2c2ccc(F)c(F)c2)c(Cl)c1 (racemic) [Structure 43]	0.00026	0.0035
CC(=O)NCCc1ccccc1-c1ccc([C@H]2CNCC[C@@H]2c2ccc(F)c(F)c2)cc1 (racemic) [Structure 44]	0.0037	0.045
CC(=O)NCCc1ccccc1-c1ccc([C@H]2CNCC[C@@H]2c2cccnc2N)c(Cl)c1 (racemic) [Structure 45]	0.71	4.58
COCCCc1ccccc1-c1ccc([C@H]2CNCC[C@]2(OCC(O)CO)c2ccc(F)c(F)c2)c(C)c1 (mixture of isomers) [Structure 48]	0.016	2.02
CC(=O)NCc1ccccc1-c1ccc([C@H]2CNCC[C@@H]2c2ccc(F)c(F)c2)cc1 (racemic) [Structure 49]	1.71	9.04
COCCCc1ccccc1-c1cc(C)c([C@H]2CNCC[C@@H]2c2ccc(Cl)c(F)c2)cn1 (racemic) [Structure 50]	0.0015	0.23

More lines, in order of falling IC50 (Human recombinant renin), values ahead:

IC50 (Human recombinant renin) [µM]	IC50 [1] [µM]	SMILES
2.5		O[C@]1(c2ccc(F)c(F)c2)CCNC[C@@H]1c1cc(-c2ccc(F)cc2Cl)no1 [Structure 69]
0.998	> 9.5	Cc1cc(-c2ccccc2CCCO)ccc1[C@H]1CNCC[C@@H]1c1cccc2nc[nH]c12 (racemic) [Structure 9]
0.62	> 10	COCCCc1ccccc1-c1ccc([C@H]2CNCC[C@@H]2c2ccccc2)c(C)c1 (racemic) [Structure 1]
0.38	1.8	COCCCc1cc(OCCOC)ccc1-c1ccc([C@H]2CNCC[C@@H]2c2cccnc2)c(C)c1 (racemic) [Structure 6]
0.093	> 28	Cc1cc(-c2cccc3ccc(O)cc23)ccc1[C@H]1CNCC[C@@H]1c1cc(F)cc(F)c1 (racemic) [Structure 29]
0.073	1.01	Cc1cc(-c2ccccc2CCNC(=O)c2cnn(C)c2)ccc1[C@H]1CNCC[C@@H]1c1cc(F)cc(F)c1 (racemic) [Structure 24]
0.047	1.14	COCCCc1ccccc1-c1ccc([C@H]2CNCC[C@]2(O)c2cccnc2)c(C)c1 (racemic) [Structure 40]
0.026	0.069	Cc1cc(-c2ccccc2CCNC(=O)c2ccn(C)n2)ccc1[C@H]1CNCC[C@@H]1c1cc(F)cc(F)c1 (racemic) [Structure 23]
0.02	1.17	Cc1cc(-c2ccccc2CCNC(=O)c2ccccc2)ccc1[C@H]1CNCC[C@@H]1c1cc(F)cc(F)c1 (racemic) [Structure 22]
0.014	1.15	Cc1cc(-c2ccccc2CCNC(=O)C(C)C)ccc1[C@H]1CNCC[C@@H]1c1cc(F)cc(F)c1 (racemic) [Structure 21]
0.0044	0.13	Cc1cc(-c2ccccc2CCNC(=O)C2CC2)ccc1[C@H]1CNCC[C@@H]1c1cc(F)cc(F)c1 (racemic) [Structure 31]
0.0038	1.89	Cc1cc(-c2ccccc2COc2ccccc2)ccc1[C@H]1CNCC[C@@H]1c1cc(F)cc(F)c1 (racemic) [Structure 35]
0.0027	0.066	COCCCc1ccccc1-c1ccc([C@H]2CNCC[C@@H]2c2cccnc2)c(Cl)c1 (racemic) [Structure 11]
0.0021	0.12	Cc1cc(-c2ccccc2CCNC(=O)CC(F)(F)F)ccc1[C@H]1CNCC[C@@H]1c1cc(F)cc(F)c1 (racemic) [Structure 33]
0.0015	0.03	Cc1cc(-c2ccccc2CCNC(=O)CO)ccc1[C@H]1CNCC[C@@H]1c1cc(F)cc(F)c1 (racemic) [Structure 26]
0.00078	0.28	CC(=O)NCCc1ccc(C(F)(F)F)cc1-c1ccc([C@H]2CNCC[C@@H]2c2ccc(F)c(F)c2)c(Cl)c1 (racemic) [Structure 46]
0.00059	0.14	CC(=O)NCCc1cc(C(F)(F)F)ccc1-c1ccc([C@H]2CNCC[C@@H]2c2ccc(F)c(F)c2)c(Cl)c1 (racemic) [Structure 47]
0.00056	0.025	COC(=O)NCCc1ccccc1-c1ccc([C@H]2CNCC[C@@H]2c2cc(F)cc(F)c2)c(C)c1 (racemic) [Structure 28]
0.0001	0.0066	O=C(NCCc1ccccc1-c1ccc([C@H]2CNCC[C@@H]2c2ccc(F)c(F)c2)c(Cl)c1)C(F)(F)F (racemic) [Structure 41]
